Measurements reported in patent US5219884A, “Immunosuppressant” (Taito Co., Ltd., priority 1990, dated 1993).
Values after ≈ are worked out from the molar mass of the structure shown. Like-named read-outs stand apart in the source and are kept apart here.

What was measured:
[1] = system: mouse allogenic mixed lymphocyte reaction (BALB/c responder, C57BL/6 stimulator spleen cells); experiment: mouse allogenic mixed lymphocyte reaction (MLR), blastogenesis by 3H-thymidine uptake; assay type: cell-based; settings: for inhibition at 0.001 µg/mL / inhibition at 0.01 µg/mL / inhibition at 0.1 µg/mL: Mus musculus, Lymphocyte, read-out: Suppression
Method: The immunosuppressive activity of the compounds (I) and their lactones was assayed by using mouse allogenic mixed lymphocyte reaction (hereinafter sometimes abbreviated as MLR). Mouse allogenic MLR was carried out by mixed culture of the BALB/c mouse (H-2^d) spleen cells as the responder cells and the mitomycin C-treated C57BL/6 (H-2^b) spleen cells as the stimulator cells in equal amounts.
The responder cells were prepared as follows: The spleen was resected from 5- to 6-week-old male BALB/c mice, and single cell suspension of spleen cells was prepared by using the RPMI1640 culture medium (containing 60 μg/ml of kanamycin sulfate, 2 mM of L-glutamine, 10 mM of N-2-hydroxyethylpiperazine-N'-2-ethanesulfonate (HEPES) and 0.1% sodium hydrogencarbonate) to which heat-inactivated fetal calf serum (hereinaftersometimes abbreviated as FCS) had been added to 5%. After hemolytic treatment, the cell suspension was adjusted to a concentration of 10^7 cells/ml by using the RPMI1640 culture medium supplemented with 10^-4 M 2-mercaptoethanol and 20% FCS, and was used as the responder cell suspension.
The stimulator cells were prepared as follows:
The spleen was resected from 5- to 6-week-old male C57BL/6 mice, and single cell suspension of spleen cells was prepared by using the RPMI1640 culture medium. After hemolytic treatment, the cells were treated with 40 μg/ml of mitomycin C at 37° C. for 60 minutes. After washing three times, the concentration of the cell suspension was adjusted to 10^7 cells/ ml by using the RPMI1640 culture medium supplemented with 10^-4 M 2-mercaptoethanol and 20% FCS, and was used as the stimulator cell suspension.
Fifty μl of the responder cell suspension, 50μl of the stimulator cell suspension prepared by the above method, and 100 μl of the test substance were placed in 96-well microculture plates, and were cultured at 37° C. in an atmosphere of 5% carbon dioxide for 4 days.
The blastogenesis of lymphocytes was assayed by a method of ^3 H-thymidine uptake as an index. That is, after termination of the culture, 0.5 μCi/well of ^3 H-thymidine was added and cultured for 4 hours. Cells were harvested by a cell-harvester, and the radioactivity incorporated into the cells was determined by a liquid scintillation counter to obtain the index of blastogenesis of lymphocytes in the mouse allogenic MLR. The suppression of the mouse allogenic MLR was evaluated by calculating the percent suppression by the following formula. [formula]
The test substance was dissolved in methanol or suspended in a mixture of methanol and acetic acid, and then diluted with the RPMI1640 culture medium.

[2] = system: human allogenic MLR (peripheral blood lymphocytes); experiment: human allogenic MLR-suppressive activity; assay type: cell-based; settings: for inhibition at 0.0001 µg/mL / inhibition at 0.001 µg/mL / inhibition at 0.01 µg/mL / inhibition at 0.1 µg/mL / inhibition at 1 µg/mL / inhibition at 10 µg/mL / inhibition at 10 pg/mL: Homo sapiens, read-out: Suppression; for inhibition at 0.0001 µg/mL / inhibition at 0.001 µg/mL / inhibition at 0.01 µg/mL / inhibition at 0.1 µg/mL / inhibition at 1 µg/mL / inhibition at 10 µg/mL / inhibition at 10 pg/mL / IC50: Lymphocyte; for IC50: human allogenic MLR, read-out: 50%-inhibition concentration (IC50)
Method: The human allogenic MLR-suppressive activity was assayed as follows:
Human peripheral blood lymphocytes obtained by Ficoll-Paque density gradient centrifugation of normal human peripheral blood were suspended in the RPMI1640 medium supplemented with 10% FCS, placed in plastic dishes, and incubated at 37° C. in an atmosphere of 5% carbon dioxide for 2 hours. After termination of incubation, the supernatant after gentle pipetting was harvested and centrifuged (1000 rpm, for 5 minutes) to obtain plastic-nonadherent cells. The plastic-nonadherent cells were allowed to pass through a nylon-wool column to give nylon-nonadherent cells, and the concentration of the cell suspension was adjusted to 4×10^6 cells/ml by using the RPMI1640 culture medium supplemented with 10% FCS, and used as the responder cell suspension.
The plastic-adherent cells were removed from the plastic dish by vigorous pipetting after addition of phosphate buffered saline supplemented with 5% FCS and 0.02% disodium ethylenediamine-tetraacetic acid (EDTA). The plastic-adherent cells were treated with 40 μg/ml of mitomycin C at 37° C. for 60 minutes, washed three times, and suspended to the concentration of 4×10^6 cells/ml in the RPMI1640 culture medium supplemented with 10% FCS. The resultant suspension was used as the stimulator cell suspension. Fifty μl of the responder cell suspension from the donor A or C was mixed with 50 μl of the stimulator cell suspension from the donor B or D, to which 100 μl of the test substance was added, and cultured at 37° C. in the an atmosphere 5% carbon dioxide for 5 days.
After termination of the culture, 1.0 μCi/well of ^3 H-thymidine was added, and after 18 hours of culture, the cells were harvested by a cell-harvester. The radioactivity incorporated into the cells was measured by a liquid scintillation counter as the index of blastogenic response of lymphocytes in human allogenic MLR. The suppression of human allogenic MLR was evaluated by calculating the percent suppression by the following formula. [formula]

[3] = body weight, wet weight of thymus and spleen, number of spleen cells in SRBC-immunized mice; assay type: in vivo, mouse; settings: Table 12B; 10 mg/kg/day
Method: Males 5- to 7-week-old BALB/c mice were immunized with sheep red blood cells (SRBC), and the spleen was resected three or four days later. By counting the plaque forming cells (PFC), suppressive effect on the production of the anti-sheep red blood cell antibody was examined as follows.
(§1) BALB/c mice were immunized with SRBC (1×10^7 cells/mouse, intravenous administration), and ISP-I in the Example 1 was administered intraperitoneally for 4 consecutive days from the day of immunization. Four days after immunization (the next day of the final administration), the spleen was resected and the anti-sheep red blood cell antibody-producing cells were determined by the direct plaque method. At the same time the body weight of the mouse, wet weight of the thymus and the spleen, and numbers of spleen cells were also determined.
as §1, with “(5×10^7” for “(1×10^7”, “the compound” for “ISP-I”, “5” for “1”, “resected,” for “resected”, “time,” for “time”

CCCCCCC(=O)CCCCCC/C=C/CC1OC(=O)C(N)(CO)C1O (stereo not drawn) [Example 4]
3H-thymidine uptake ([1]; 0.001 μg/ml): 29598 cpm
3H-thymidine uptake ([1]; 0.01 μg/ml): 10394 cpm
3H-thymidine uptake ([1]; 0.1 μg/ml): 1414 cpm
inhibition at 0.001 µg/mL ([1]; 0.001 μg/ml): 0.4%
inhibition at 0.01 µg/mL ([1]; 0.01 μg/ml): 70%
inhibition at 0.1 µg/mL ([1]; 0.1 μg/ml): 100%
inhibition at 0.0001 µg/mL ([2]; donor A/donor B, 0.0001 μg/ml): 32.3%
inhibition at 0.001 µg/mL ([2]; donor A/donor B, 0.001 μg/ml): 47.4%
inhibition at 0.01 µg/mL ([2]; donor A/donor B, 0.01 μg/ml): 65.8%
inhibition at 0.1 µg/mL ([2]; donor A/donor B, 0.1 μg/ml): 89.2%
inhibition at 1 µg/mL ([2]; donor A/donor B, 1 μg/ml): 83.5%
inhibition at 10 µg/mL ([2]; donor A/donor B, 10 μg/ml): 86.4%
inhibition at 10 pg/mL ([2]; donor C/donor D, 0.00001 μg/ml): 55.8%
inhibition at 0.0001 µg/mL ([2]; donor C/donor D, 0.0001 μg/ml): 61.9%
inhibition at 0.001 µg/mL ([2]; donor C/donor D, 0.001 μg/ml): 58.5%
inhibition at 0.01 µg/mL ([2]; donor C/donor D, 0.01 μg/ml): 80.8%
inhibition at 0.1 µg/mL ([2]; donor C/donor D, 0.1 μg/ml): 84.9%
inhibition at 1 µg/mL ([2]; donor C/donor D, 1 μg/ml): 79.2%
IC50 [2]: 0.79 ng/mL (≈ 2.06 nM)
3H-thymidine uptake ([2]; donor A/donor B, 0.0001 μg/ml): 16963 cpm
3H-thymidine uptake ([2]; donor A/donor B, 0.001 μg/ml): 13715 cpm
3H-thymidine uptake ([2]; donor A/donor B, 0.01 μg/ml): 9754 cpm
3H-thymidine uptake ([2]; donor A/donor B, 0.1 μg/ml): 4734 cpm
3H-thymidine uptake ([2]; donor A/donor B, 1 μg/ml): 5954 cpm
3H-thymidine uptake ([2]; donor A/donor B, 10 μg/ml): 5332 cpm
3H-thymidine uptake ([2]; donor C/donor D, 0.00001 μg/ml): 7746 cpm
3H-thymidine uptake ([2]; donor C/donor D, 0.0001 μg/ml): 6700 cpm
3H-thymidine uptake ([2]; donor C/donor D, 0.001 μg/ml): 7278 cpm
3H-thymidine uptake ([2]; donor C/donor D, 0.01 μg/ml): 3417 cpm
3H-thymidine uptake ([2]; donor C/donor D, 0.1 μg/ml): 2708 cpm
3H-thymidine uptake ([2]; donor C/donor D, 1 μg/ml): 3703 cpm

CCCCCCC(O)CCCCCC/C=C/CC(O)C(O)C(N)(CO)C(=O)O (stereo not drawn) [Example 6]
3H-thymidine uptake ([1]; 0.001 μg/ml): 16237 cpm
3H-thymidine uptake ([1]; 0.01 μg/ml): 9276 cpm
3H-thymidine uptake ([1]; 0.1 μg/ml): 3017 cpm
inhibition at 0.001 µg/mL ([1]; 0.001 μg/ml): 52.3%
inhibition at 0.01 µg/mL ([1]; 0.01 μg/ml): 85.4%
inhibition at 0.1 µg/mL ([1]; 0.1 μg/ml): 100%
inhibition at 0.0001 µg/mL ([2]; donor A/donor B, 0.0001 μg/ml): 45.2%
inhibition at 0.001 µg/mL ([2]; donor A/donor B, 0.001 μg/ml): 56.2%
inhibition at 0.01 µg/mL ([2]; donor A/donor B, 0.01 μg/ml): 81.7%
inhibition at 0.1 µg/mL ([2]; donor A/donor B, 0.1 μg/ml): 81.3%
inhibition at 1 µg/mL ([2]; donor A/donor B, 1 μg/ml): 83.9%
inhibition at 10 µg/mL ([2]; donor A/donor B, 10 μg/ml): 90%
inhibition at 0.0001 µg/mL ([2]; donor C/donor D, 0.0001 μg/ml): 14%
inhibition at 0.001 µg/mL ([2]; donor C/donor D, 0.001 μg/ml): 51.7%
inhibition at 0.01 µg/mL ([2]; donor C/donor D, 0.01 μg/ml): 77%
inhibition at 0.1 µg/mL ([2]; donor C/donor D, 0.1 μg/ml): 80.3%
inhibition at 1 µg/mL ([2]; donor C/donor D, 1 μg/ml): 86.4%
inhibition at 10 pg/mL [2]: 6.8%
IC50 [2]: 0.22 ng/mL (≈ 0.545 nM)
3H-thymidine uptake ([2]; donor A/donor B, 0.0001 μg/ml): 14191 cpm
3H-thymidine uptake ([2]; donor A/donor B, 0.001 μg/ml): 11753 cpm
3H-thymidine uptake ([2]; donor A/donor B, 0.01 μg/ml): 6335 cpm
3H-thymidine uptake ([2]; donor A/donor B, 0.1 μg/ml): 6418 cpm
3H-thymidine uptake ([2]; donor A/donor B, 1 μg/ml): 5877 cpm
3H-thymidine uptake ([2]; donor A/donor B, 10 μg/ml): 4564 cpm
3H-thymidine uptake ([2]; donor C/donor D, 0.00001 μg/ml): 16241 cpm
3H-thymidine uptake ([2]; donor C/donor D, 0.0001 μg/ml): 14996 cpm
3H-thymidine uptake ([2]; donor C/donor D, 0.001 μg/ml): 8468 cpm
3H-thymidine uptake ([2]; donor C/donor D, 0.01 μg/ml): 4082 cpm
3H-thymidine uptake ([2]; donor C/donor D, 0.1 μg/ml): 3501 cpm
3H-thymidine uptake ([2]; donor C/donor D, 1 μg/ml): 2448 cpm

CCCCCCC(=O)CCCCCCCCCC1OC(=O)C(N)(CO)C1O (stereo not drawn) [Example 7]
3H-thymidine uptake ([1]; 0.001 μg/ml): 24446 cpm
3H-thymidine uptake ([1]; 0.01 μg/ml): 34378 cpm
3H-thymidine uptake ([1]; 0.1 μg/ml): 3546 cpm
inhibition at 0.001 µg/mL ([1]; 0.001 μg/ml): 13.4%
inhibition at 0.01 µg/mL ([1]; 0.01 μg/ml): 0%
inhibition at 0.1 µg/mL ([1]; 0.1 μg/ml): 100%

CCCCCCC(O)CCCCCC/C=C/CC1OC(=O)C(N)(CO)C1O (stereo not drawn) [Example 8]
Body weight [3]: 18 ± 1 g
Number of spleen cells [3]: 1.3 ± 0.2 × 10^8 cell
Wet weight spleen [3]: 103 ± 30 mg
Wet weight thymus [3]: 25 ± 9 mg
3H-thymidine uptake ([1]; 0.001 μg/ml): 22815 cpm
3H-thymidine uptake ([1]; 0.01 μg/ml): 3081 cpm
3H-thymidine uptake ([1]; 0.1 μg/ml): 1586 cpm
inhibition at 0.001 µg/mL ([1]; 0.001 μg/ml): 21.1%
inhibition at 0.01 µg/mL ([1]; 0.01 μg/ml): 100%
inhibition at 0.1 µg/mL ([1]; 0.1 μg/ml): 100%

CCCCCCC(O)CCCCCCCCCC(O)C(O)C(N)(CO)C(=O)O (stereo not drawn) [Example 9]
3H-thymidine uptake ([1]; 0.001 μg/ml): 25682 cpm
3H-thymidine uptake ([1]; 0.01 μg/ml): 23668 cpm
3H-thymidine uptake ([1]; 0.1 μg/ml): 3167 cpm
inhibition at 0.001 µg/mL ([1]; 0.001 μg/ml): 7.5%
inhibition at 0.01 µg/mL ([1]; 0.01 μg/ml): 17.1%
inhibition at 0.1 µg/mL ([1]; 0.1 μg/ml): 100%

CCCCCCC(O)CCCCCCCCCC1OC(=O)C(N)(CO)C1O (stereo not drawn) [Example 10]
3H-thymidine uptake ([1]; 0.001 μg/ml): 19595 cpm
3H-thymidine uptake ([1]; 0.01 μg/ml): 19019 cpm
3H-thymidine uptake ([1]; 0.1 μg/ml): 2405 cpm
inhibition at 0.001 µg/mL ([1]; 0.001 μg/ml): 36.4%
inhibition at 0.01 µg/mL ([1]; 0.01 μg/ml): 39.1%
inhibition at 0.1 µg/mL ([1]; 0.1 μg/ml): 100%

CCCCCCC(=O)CCCCCC/C=C/CC1OC(=O)C(CO)(NC(C)=O)C1O (stereo not drawn) [Example 11]
3H-thymidine uptake ([1]; 0.001 μg/ml): 32597 cpm
3H-thymidine uptake ([1]; 0.01 μg/ml): 30777 cpm
3H-thymidine uptake ([1]; 0.1 μg/ml): 23430 cpm
inhibition at 0.001 µg/mL ([1]; 0.001 μg/ml): 0%
inhibition at 0.01 µg/mL ([1]; 0.01 μg/ml): 0%
inhibition at 0.1 µg/mL ([1]; 0.1 μg/ml): 18.2%
